Source: the supplement of paper PMC10627819

Tests used:
B. subtilis 168 = experiment: fitness (endpoint OD595 vs no drug) (fraction); higher = more growth
Method in brief: (§1)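 Cultures at OD595 0.01 were dispensed into 384-well plates in TSB, LB Lennox or CY and incubated at 37 °C. Every 30 min for 14 h, OD595 was read and corrected by the first reading. Fitness is the optical density at entry into stationary phase relative to the robust mean of no-drug control wells, capped at 1.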

S. pneumoniae D39V = experiment: as above
Method in brief: as §1

CN(C)[C@@H]1C(O)=C(C(N)=O)C(=O)[C@@]2(O)C(O)=C3C(=O)c4c(O)ccc(Cl)c4[C@@](C)(O)[C@H]3C[C@@H]12 [Chlortetracycline] + CO/N=C(\C(=O)N[C@@H]1C(=O)N2C(C(=O)O)=C(COC(N)=O)CS[C@H]12)c1ccco1 [Cefuroxime]
fitness, B. subtilis 168
Conditions	first compound 0.0475 µg/mL	first compound 0.095 µg/mL	first compound 0.19 µg/mL
partner 0.04875 µg/mL	0.667	0.593	0.162
partner 0.0975 µg/mL	0.601	0.519	0.135
partner 0.195 µg/mL	0.429	0.312	0.0926

fitness, B. subtilis 168, one replicate
Conditions	partner 0.39 µg/mL	partner 0.78 µg/mL	partner 1.562 µg/mL	partner 3.125 µg/mL	partner 6.25 µg/mL
first compound 0.0475 µg/mL	0.346	0.362	0.303	0.275	0.21
first compound 0.095 µg/mL	0.207	0.145	0.103	0.0825	0.0597
first compound 0.19 µg/mL	0.0621	0.0481	0.038	0.0341	0.0237

CN(C)[C@@H]1C(O)=C(C(N)=O)C(=O)[C@@]2(O)C(O)=C3C(=O)c4c(O)ccc(Cl)c4[C@@](C)(O)[C@H]3C[C@@H]12 [Chlortetracycline] + CO[C@@H]1[C@@H](OC(N)=O)[C@@H](O)[C@H](Oc2ccc3c(O)c(NC(=O)c4ccc(O)c(CC=C(C)C)c4)c(=O)oc3c2C)OC1(C)C [Novobiocin]
fitness, B. subtilis 168
Conditions	first compound 0.0475 µg/mL	first compound 0.095 µg/mL	first compound 0.19 µg/mL
partner 0.0125 µg/mL	0.909	0.765	0.469
partner 0.025 µg/mL	0.623	0.653	0.336
partner 0.05 µg/mL	0.986	0.844	0.398

fitness, B. subtilis 168, one replicate
Conditions	partner 0.1 µg/mL	partner 0.125 µg/mL	partner 0.2 µg/mL	partner 0.25 µg/mL	partner 0.5 µg/mL
first compound 0.0475 µg/mL	0.948	0.928	0.934	0.966	0.648
first compound 0.095 µg/mL	0.863	0.839	0.936	0.811	0.577
first compound 0.19 µg/mL	0.529	0.548	0.52	0.537	0.323

CN(C)[C@@H]1C(O)=C(C(N)=O)C(=O)[C@@]2(O)C(O)=C3C(=O)c4c(O)ccc(Cl)c4[C@@](C)(O)[C@H]3C[C@@H]12 [Chlortetracycline] + C[C@H]1COc2c(N3CCN(C)CC3)c(F)cc3c(=O)c(C(=O)O)cn1c23 [Levofloxacin]
fitness, B. subtilis 168, one replicate
Conditions	first compound 0.0475 µg/mL	first compound 0.095 µg/mL	first compound 0.19 µg/mL
partner 0.001 µg/mL	0.924	0.912	0.674
partner 0.0078 µg/mL	0.907	0.824	0.623

Conditions	fitness
B. subtilis 168, first compound 0.0475 µg/mL, partner 0.002 µg/mL	0.898
B. subtilis 168, first compound 0.0475 µg/mL, partner 0.0039 µg/mL	0.855
B. subtilis 168, first compound 0.0475 µg/mL, partner 0.0312 µg/mL	0.0308
B. subtilis 168, first compound 0.0475 µg/mL, partner 0.0625 µg/mL	0.0341
B. subtilis 168, first compound 0.0475 µg/mL, partner 0.125 µg/mL	0.0327
B. subtilis 168, first compound 0.095 µg/mL, partner 0.002 µg/mL	0.854
B. subtilis 168, first compound 0.095 µg/mL, partner 0.0039 µg/mL	0.854
B. subtilis 168, first compound 0.095 µg/mL, partner 0.0312 µg/mL	0.0231
B. subtilis 168, first compound 0.095 µg/mL, partner 0.0625 µg/mL	0.0369
B. subtilis 168, first compound 0.095 µg/mL, partner 0.125 µg/mL	0.028
B. subtilis 168, first compound 0.19 µg/mL, partner 0.002 µg/mL	0.593
B. subtilis 168, first compound 0.19 µg/mL, partner 0.0039 µg/mL	0.61
B. subtilis 168, first compound 0.19 µg/mL, partner 0.0312 µg/mL	0.0218
B. subtilis 168, first compound 0.19 µg/mL, partner 0.0625 µg/mL	0.054
B. subtilis 168, first compound 0.19 µg/mL, partner 0.125 µg/mL	0.032
S. pneumoniae D39V, first compound 0.012 µg/mL, partner 0.1725 µg/mL	0.949
S. pneumoniae D39V, first compound 0.012 µg/mL, partner 0.345 µg/mL	0.803
S. pneumoniae D39V, first compound 0.012 µg/mL, partner 0.69 µg/mL	0.603
S. pneumoniae D39V, first compound 0.024 µg/mL, partner 0.1725 µg/mL	0.909
S. pneumoniae D39V, first compound 0.024 µg/mL, partner 0.345 µg/mL	0.88
S. pneumoniae D39V, first compound 0.024 µg/mL, partner 0.69 µg/mL	0.546
S. pneumoniae D39V, first compound 0.048 µg/mL, partner 0.1725 µg/mL	0.869
S. pneumoniae D39V, first compound 0.048 µg/mL, partner 0.345 µg/mL	0.828
S. pneumoniae D39V, first compound 0.375 µg/mL, partner 0.2 µg/mL	0.0411
S. pneumoniae D39V, first compound 0.375 µg/mL, partner 0.4 µg/mL	0.0338
S. pneumoniae D39V, first compound 0.375 µg/mL, partner 0.8 µg/mL	0.0351
S. pneumoniae D39V, first compound 0.75 µg/mL, partner 0.2 µg/mL	0.0448
S. pneumoniae D39V, first compound 0.75 µg/mL, partner 0.4 µg/mL	0.0671
S. pneumoniae D39V, first compound 0.75 µg/mL, partner 0.8 µg/mL	0.0531
S. pneumoniae D39V, first compound 1.5 µg/mL, partner 0.2 µg/mL	0.0471
S. pneumoniae D39V, first compound 1.5 µg/mL, partner 0.4 µg/mL	0.0332
S. pneumoniae D39V, first compound 1.5 µg/mL, partner 0.8 µg/mL	0.0439

CN(C)[C@@H]1C(O)=C(C(N)=O)C(=O)[C@@]2(O)C(O)=C3C(=O)c4c(O)ccc(Cl)c4[C@@](C)(O)[C@H]3C[C@@H]12 [Chlortetracycline] + C[C@H]1c2cccc(O)c2C(=O)C2=C(O)[C@]3(O)C(=O)C(C(N)=O)=C(O)[C@@H](N(C)C)[C@@H]3[C@@H](O)[C@@H]21 [Doxycycline]
Conditions	fitness
B. subtilis 168, first compound 0.0475 µg/mL, partner 0.02 µg/mL	0.858
B. subtilis 168, first compound 0.0475 µg/mL, partner 0.04 µg/mL	0.658
B. subtilis 168, first compound 0.095 µg/mL, partner 0.02 µg/mL	0.735
B. subtilis 168, first compound 0.095 µg/mL, partner 0.04 µg/mL	0.553
B. subtilis 168, first compound 0.19 µg/mL, partner 0.08 µg/mL	0.0672
S. pneumoniae D39V, first compound 0.012 µg/mL, partner 0.0155 µg/mL	0.921
S. pneumoniae D39V, first compound 0.024 µg/mL, partner 0.0155 µg/mL	0.88
S. pneumoniae D39V, first compound 0.048 µg/mL, partner 0.0155 µg/mL	0.803
S. pneumoniae D39V, first compound 0.375 µg/mL, partner 0.0155 µg/mL	0.0318
S. pneumoniae D39V, first compound 0.375 µg/mL, partner 0.031 µg/mL	0.0187
S. pneumoniae D39V, first compound 0.375 µg/mL, partner 0.062 µg/mL	0.0418
S. pneumoniae D39V, first compound 0.75 µg/mL, partner 0.0155 µg/mL	0.0248
S. pneumoniae D39V, first compound 0.75 µg/mL, partner 0.031 µg/mL	0.0352
S. pneumoniae D39V, first compound 0.75 µg/mL, partner 0.062 µg/mL	0.0311
S. pneumoniae D39V, first compound 1.5 µg/mL, partner 0.0155 µg/mL	0.0258
S. pneumoniae D39V, first compound 1.5 µg/mL, partner 0.031 µg/mL	0.067
S. pneumoniae D39V, first compound 1.5 µg/mL, partner 0.062 µg/mL	0.047

fitness, S. pneumoniae D39V, one replicate
Conditions	partner 0.003875 µg/mL	partner 0.00775 µg/mL	partner 0.031 µg/mL	partner 0.062 µg/mL
first compound 0.012 µg/mL	0.909	0.91	0.8	0.707
first compound 0.024 µg/mL	0.834	0.808	0.821	0.774
first compound 0.048 µg/mL	0.774	0.809	0.745	0.614

CN(C)[C@@H]1C(O)=C(C(N)=O)C(=O)[C@@]2(O)C(O)=C3C(=O)c4c(O)ccc(Cl)c4[C@@](C)(O)[C@H]3C[C@@H]12 [Chlortetracycline] + O=C1CN(/N=C/c2ccc([N+](=O)[O-])o2)C(=O)N1 [Nitrofurantoin]
fitness, S. pneumoniae D39V
Conditions	first compound 0.012 µg/mL	first compound 0.024 µg/mL	first compound 0.048 µg/mL	first compound 0.375 µg/mL	first compound 0.75 µg/mL	first compound 1.5 µg/mL
partner 1.285 µg/mL	0.958	0.896	0.842	–	–	–
partner 2 µg/mL	–	–	–	0.034	0.0485	0.0311
partner 2.57 µg/mL	0.96	0.951	0.836	–	–	–
partner 4 µg/mL	–	–	–	0.0275	0.0381	0.0293
partner 8 µg/mL	–	–	–	0.0328	0.0386	0.0233

S. pneumoniae D39V, partner 5.14 µg/mL, one replicate
Conditions	fitness
first compound 0.012 µg/mL	0.862
first compound 0.024 µg/mL	0.898
first compound 0.048 µg/mL	0.762
